US20200399308A1, “COMPOUNDS AND METHODS FOR ELICITING ANTIMICROBIAL ACTIVITY” (Technion Research & Development Foundation Limited, priority 2018, published 2020)
≈ marks a conversion by molar mass, not a printed value. Entries after “also recorded” stand apart in the source; their conditions may differ. Non-standard residues stand in square brackets, D forms with d. Residues, ends and D or L forms follow the SMILES beside them. *: point of attachment. 12Ado = NCCCCCCCCCCCC(=O)O; Decanoyl = CCCCCCCCCC(=O)*; Orn = NCCC[CH](N)C(=O)O

Key:
[1] = Charge at physiological pH (Q); format: physicochemical
[2] = Hydrophobicity (H) by HPLC elution from C18 column; format: physicochemical; conditions: percentage of acetonitrile required for elution
Hemolytic assay = format: cell-based; conditions: fresh mouse red blood cells (1%); hemolysis of 50% of mouse red blood cells (1%) after 3 hours in PBS; read-out: LC50, fifty percent lethal concentration (hemolysis)
Method: Organization of the compounds in aqueous solution was assessed by light-scattering measurements in phosphate buffered saline (PBS; 10 mM Na2HPO4, 150 mM NaCl, pH=7.0). Hemolytic assays were performed as described elsewhere, using fresh mouse red blood cells.
(§1) The mean value (±SD) is shown for Compound C; Minimum inhibitory concentration (MIC) of compounds required to inhibit bacterial proliferation after overnight incubation.

Escherichia coli 25922 [3] = assay: Minimal inhibitory concentration; format: cell-based; conditions: Ec 25922, overnight incubation, read-out: MIC
Method: (§2) Minimal inhibitory concentrations (MICs) were determined as previously described. […] MICs were determined by microdilution susceptibility testing in 96-well plates (by Nunc) using inocula of 10^5 bacteria per ml. Cell populations were evaluated by optical density measurements at 620 nm and were calibrated against a set of standards. Hundred (100) μl of a bacterial suspension were added to 100 μl of culture medium (control) or to 100 μl of culture medium containing various tested compound concentrations in 2-fold serial dilutions. Inhibition of proliferation was determined by optical density measurements at 620 nm after an incubation period of 24 hours at 37° C. Data were obtained from ≥2 independent experiments performed in duplicate.
as §1

Escherichia coli ML35p = assay: Minimal inhibitory concentration; format: cell-based; conditions: Ec ML35p, overnight incubation
Method: as §2, §1

[4] = system: Klebsiella pneumoniae 1287; assay: Minimal inhibitory concentration; format: cell-based; conditions: Kp 1287, overnight incubation, read-out: MIC
Method: as §2, §1

[5] = system: Klebsiella pneumoniae C2 (carbapenemase 2-producing strain); assay: Minimal inhibitory concentration; format: cell-based; conditions: Kp C2, overnight incubation, read-out: MIC
Method: as §2, §1

[6] = system: Pseudomonas aeruginosa 11662; assay: Minimal inhibitory concentration; format: cell-based; conditions: Pa 11662, overnight incubation, read-out: MIC
Method: as §2, §1

[7] = system: Pseudomonas aeruginosa 11816; assay: Minimal inhibitory concentration; format: cell-based; conditions: Pa 11816, overnight incubation, read-out: MIC
Method: as §2, §1

[8] = system: Salmonella enterica serovar Choleraesuis 7308; assay: Minimal inhibitory concentration; format: cell-based; conditions: CHOLERAESUIS / SC7308, SC 7308, overnight incubation, read-out: MIC
Method: as §2, §1

E. coli = assay: Minimal bactericidal concentration; format: cell-based; conditions: Escherichia coli
K. pneumoniae = assay: Minimal bactericidal concentration; format: cell-based; conditions: Klebsiella pneumoniae
[9] = system: Escherichia coli mutant ML-35p; assay: Outer and cytoplasmic membrane permeabilization (nitrocefin / ONPG); format: cell-based; conditions: E. coli ML-35p, buffer, 16 minutes after addition
Method: Membrane permeabilization was assessed using E. coli ML-35p as described elsewhere, to monitor the ability of the compounds to perturb the outer and/or cytoplasmic membranes. Reported data were obtained from ≥2 independent experiments performed in duplicate.
Additional support for this view was obtained by comparing the compounds' susceptibility to damage gram-negative bacteria membranes, using the E. coli mutant ML-35p. Widely described in the literature, the mutant was considered herein as representative of all gram-negative bacteria, rather than a specific species. This mutant is constitutive for cytoplasmic β-galactosidase, lacks lactose permease, and expresses a plasmid-encoded periplasmic β-lactamase. Two chromogenic reporter molecules (nitrocefin and 2-nitrophenyl β-d-galactopyranoside, respectively, absorbing at 486 and 420 nm) were used to monitor permeabilization of the outer membrane and/or cytoplasmic membrane in a single assay.

[10] = Maximum tolerated dose, single-dose subcutaneous administration; format: in vivo; conditions: subcutaneous 20 mg/kg, mice
Method: Mortality was monitored for 7 days thereafter. Pharmacokinetic studies were performed as described elsewhere.

Escherichia coli 25922 [11] = assay: Checkerboard assay with lysozyme in broth medium; format: cell-based
Method: (§3) Inhibition was determined after 24 hours of incubation.

[12] = system: Klebsiella pneumoniae 1287; assay: Checkerboard assay with lysozyme in broth medium; format: cell-based; conditions: growth medium, 2.5, 5, 10 μM Compound B combined with lysozyme, 24 hours
Method: as §3

K. pneumoniae 1287 = assay: Growth kinetics by absorbance at 620 nm; format: cell-based, Klebsiella pneumoniae; conditions: 10 μM Compound B, culture medium
Method: FIGS. 6A-B present growth kinetics assessed by measuring the absorbance at 620 nm of E. coli 25922 (FIG. 6A) and K. pneumoniae 1287 (FIG. 6B) in absence or presence of the 10 μM of Compound B (circles denote vehicle control, triangles denote Compound B; error bars represent standard deviations).

E. coli 25922 = assay: Cytoplasmic membrane depolarization (DiSC35); format: cell-based, Escherichia coli; conditions: low Compound B concentrations
Method: Cytoplasmic membrane depolarization measurements were assessed by monitoring the displacement of 3,39-dipropylthiadicarbocyanine iodide (DiSC35), a lipophilic potentiometric dye. Mid-logarithmic phase E. coli 25922 at OD 0.6 nm was centrifuged for 5 min at 15,000 g. The pellet was washed twice with 5 mM HEPES containing 5 mM glucose and 2 mM EDTA before addition of DiSC35 ([…]) and quenching at room temperature in the dark for 1 hour. KCl was then added (100 mM) and the suspension incubated overnight (4° C.). One hundred eighty microliters of this bacterial suspension was placed in a black 96-well plate, and fluorescence was recorded until signal stabilization (excitation 620 nm, emission 680 nm). Thereafter […] of the tested compound was added and the fluorescence recorded for up to 30 minutes at 37° C. with shaking. Data were obtained from at least 2 independent experiments performed in duplicate.
(FU denotes fluorescence units; triangles denote Compound B, circles denote PMB, squares denote untreated control; error bars=SD).

[13] = system: wild-type isogenic strain; assay: MIC on wild-type isogenic strain; format: cell-based; conditions: Escherichia coli, data not shown
Description: The following strains were used for the studies below: Escherichia coli strain ML-35p (American Type Culture Collection [ATCC]; […]. The following gram-positive species was investigated: methicillin-resistant Staphylococcus aureus clinical isolate USA300 10017 (a gift from Dr. Gili Regev-Yochay, Infectious Disease Unit, Sheba Medical Center, Israel). Additional Escherichia coli strains tested include β-lactamase producer 35218; clinical isolate strains 14182, 14384, and U16327; and two K12 isogenic mutants, AG100 and AG100A. Unless otherwise stated, all bacterial cultures were grown overnight in Luria-Bertani broth (LB).
as §2

For `CCCCCCCCCC(=O)NC(CCCN)C(=O)NC(CCCN)C(=O)NCCCCCCCCCCCC(=O)NC(CCCN)C(N)=O` (stereo not drawn) [Compound B] (Decanoyl-[Orn][Orn][12Ado][Orn]-NH2; configuration not given here), the “Q, charge at physiological pH” value [1] was 3, the “H, hydrophobicity” value [2] was 43% and the CC50 at 3 h (Hemolytic assay) was over 100 µM. The MIC (Escherichia coli 25922 [3]) was over 50 µM, the MIC (Escherichia coli ML35p) was over 50 µM and the MIC [4] was over 50 µM. The MIC [5] was over 50 µM, the MIC [6] was 50 µM (≈ 35.6 µg/mL) and the MIC [7] was 50 µM (≈ 35.6 µg/mL). It also gave an MIC [8] of over 50 µM, an MBC (E. coli) of over 50 µM and an MBC (K. pneumoniae) of over 50 µM. For the same compound, the cytoplasmic membrane permeabilization [9] was “similarly unable to permeabilize the cytoplasmic membrane at least up to approximately 10 μM; also recorded: some CM permeabilization occurred only at 10 mM”, the outer membrane permeabilization [9] was “similarly potent in inducing outer membrane permeabilization; also recorded: as efficient as dermaseptin in altering outer membrane permeability” and the “adverse effects at highest tested dose” value [10] was “did not result in any visible adverse effect”. For the same compound, the “growth inhibition in combination with lysozyme” value (Escherichia coli 25922 [11]; growth medium, 2.5, 5, 10 μM Compound B combined with lysozyme, 24 hours) was “dose-dependent synergistic growth inhibition”, the “E. coli counts (final, from 4 log)” value (Escherichia coli 25922 [11]; medium, 10 μM Compound B plus 18 μM lysozyme) was 9 log CFU/mL and the “growth inhibition in combination with lysozyme” value [12] was “dose-dependent synergistic growth inhibition”. The “growth kinetics in presence vs absence of compound” value (K. pneumoniae 1287) was “practically identical curves”, the “CM depolarization (DiSC35 fluorescence)” value (E. coli 25922) was “partial depolarization of the CM” and the MIC [13] was over 50 µM.
